Results from patent publication US10722514B2 (FLX Bio, Inc., priority 2017, dated 2020).
Read-outs that look alike come from different tables or passages of the source.

Target: T1, recombinant full-length USP7 (Homo sapiens, UniProt Q93009)
T1 construct: A 25 μl reaction volume containing recombinant full-length USP7 (62 pM)
Assay: USP7-mediated ubiquitin-rhodamine cleavage assay
Format: biochemical
Conditions: recombinant full-length USP7 62 pM, ubiquitin-rhodamine 100 nM, 1 hour reaction at room temperature
How it was run: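 USP7 (62 pM) in 20 mM HEPES pH 7.3, 150 mM NaCl, 1 mM TCEP, 125 μg/ml BSA was preincubated with compound (1% DMSO) for 30 min at room temperature. Ubiquitin-rhodamine (100 nM final) was then added for 1 hour, the reaction stopped with acetic acid, and fluorescence read; IC50 from 4-parameter fit.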

[1] = 30-minute incubation, read-out: Potency (USP7 IC50)
[2] = 30-minute incubation with compound, read-out: Potency: USP7 IC50
[3] = 30-minute pre-incubation, read-out: Potency (USP7 IC50)

T1 sequence (Q93009 whole entry): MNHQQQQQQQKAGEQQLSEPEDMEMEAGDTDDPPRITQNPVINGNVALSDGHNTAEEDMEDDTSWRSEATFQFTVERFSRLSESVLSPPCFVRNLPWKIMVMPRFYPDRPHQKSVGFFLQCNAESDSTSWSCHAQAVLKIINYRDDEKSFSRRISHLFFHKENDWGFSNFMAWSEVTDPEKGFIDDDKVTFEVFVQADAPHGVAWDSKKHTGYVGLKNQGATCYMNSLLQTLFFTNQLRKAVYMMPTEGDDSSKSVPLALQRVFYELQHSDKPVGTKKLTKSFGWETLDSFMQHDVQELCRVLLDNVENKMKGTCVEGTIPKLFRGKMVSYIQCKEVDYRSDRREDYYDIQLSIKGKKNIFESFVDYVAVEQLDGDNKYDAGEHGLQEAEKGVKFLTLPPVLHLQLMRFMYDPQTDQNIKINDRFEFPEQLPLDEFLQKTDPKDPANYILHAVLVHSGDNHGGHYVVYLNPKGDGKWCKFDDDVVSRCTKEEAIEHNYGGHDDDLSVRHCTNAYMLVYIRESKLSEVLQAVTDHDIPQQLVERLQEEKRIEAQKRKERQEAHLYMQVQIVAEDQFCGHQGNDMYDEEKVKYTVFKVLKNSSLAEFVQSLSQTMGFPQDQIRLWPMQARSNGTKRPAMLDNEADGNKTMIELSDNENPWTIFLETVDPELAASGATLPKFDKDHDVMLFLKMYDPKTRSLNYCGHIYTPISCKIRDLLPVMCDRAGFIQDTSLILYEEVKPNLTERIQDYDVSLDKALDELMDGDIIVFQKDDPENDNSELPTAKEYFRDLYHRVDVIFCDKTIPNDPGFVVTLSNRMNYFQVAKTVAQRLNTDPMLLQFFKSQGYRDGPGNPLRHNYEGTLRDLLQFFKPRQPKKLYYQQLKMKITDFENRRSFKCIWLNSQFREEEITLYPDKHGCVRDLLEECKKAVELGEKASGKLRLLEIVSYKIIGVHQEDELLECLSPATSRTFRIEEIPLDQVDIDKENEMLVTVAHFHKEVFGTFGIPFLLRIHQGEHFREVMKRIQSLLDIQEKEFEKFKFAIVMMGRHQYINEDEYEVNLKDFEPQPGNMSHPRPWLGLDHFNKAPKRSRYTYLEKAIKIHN

Cc1cc(Cl)cc(-c2ccnc3cc(Cn4c(=O)ccn(CC(F)(F)F)c4=O)sc23)c1O[C@@H]1CCN(CC(=O)O)C[C@@H]1C [Example 691, 2-[(3S,4R)-4-[4-chloro-2-[2-[[2,6-dioxo-3-(2,2,2-trifluoroethyl)pyrimidin-1-yl]methyl]thieno[3,2-b]pyridin-7-yl]-6-methyl-phenoxy]-3-methyl-1-piperidyl]acetic acid]
IC50 [1]: < 1000 nM

Cc1cc(Cl)cc(-c2ccnc3cc(CN4C(=O)CCC4=O)sc23)c1OC1CCNC(C)(C)C1 (centres unmarked) [Example 205, 1-((7-(5-Chloro-2-((2,2-dimethylpiperidin-4-yl)oxy)-3-methylphenyl)thieno[3,2-b]pyridin-2-yl)methyl)pyrrolidine-2,5-dione]
IC50 [2]: < 1000 nM

Cc1cc(Cl)cc(-c2ccnc3cc(Cn4c(=O)ccn(C)c4=O)sc23)c1O[C@@H]1CC[C@@H](NCCO)C1 [Example 531, 3-[[7-[5-chloro-2-[(1R,3R)-3-(2-hydroxyethylamino)cyclopentoxy]-3-methyl-phenyl]thieno[3,2-b]pyridin-2-yl]methyl]-1-methyl-pyrimidine-2,4-dione; 2,2,2-trifluoroacetic acid]
IC50 [3]: < 1000 nM

Cc1cc(Cl)cc(-c2ccnc3cc(CO)sc23)c1OCC12CNCC1C2 (centres unmarked) [Example 69, (7-(2-((3-Azabicyclo[3.1.0]hexan-1-yl)methoxy)-5-chloro-3-methylphenyl)thieno[3,2-b]pyridin-2-yl)methanol]
IC50 [2]: 10000 to 30000 nM

Cc1cc(Cl)cc(-c2ccnc3cc(Cn4c(=O)ccn(C)c4=O)sc23)c1O[C@H]1CCN(C(C)C)C[C@@H]1F [Example 473, 3-[[7-[5-chloro-2-[[(3S,4S)-3-fluoro-1-isopropyl-4-piperidyl]oxy]-3-methyl-phenyl]thieno[3,2-b]pyridin-2-yl]methyl]-1-methyl-pyrimidine-2,4-dione; 2,2,2-trifluoroacetic acid]
IC50 [3]: < 1000 nM

Cc1cc(Cl)cc(-c2ccnc3cc(CN4C(=O)CCC4=O)sc23)c1O[C@H]1CCCNCC1 [Example 269, (S)-1-((7-(2-(Azepan-4-yloxy)-5-chloro-3-methylphenyl)thieno[3,2-b]pyridin-2-yl)methyl)pyrrolidine-2,5-dione]
IC50 [2]: < 1000 nM

CCC(O)c1cc2nccc(-c3cc(Cl)cc(C)c3O[C@@H]3CN[C@H](C(C)(C)O)C3)c2s1 (stereo partly drawn) [Example 86, 1-(7-(5-Chloro-2-(((3S,5S)-5-(2-hydroxypropan-2-yl)pyrrolidin-3-yl)oxy)-3-methylphenyl)thieno[3,2-b]pyridin-2-yl)propan-1-ol]
IC50 [2]: 1000 to 10000 nM

Cc1cc(Cl)cc(-c2ccnc3cc(Cn4c(=O)ccn(CC(F)(F)F)c4=O)sc23)c1O[C@H]1CC[C@](C)(N)C1 [Example 597, 3-[[7-[2-[(1S,3S)-3-amino-3-methyl-cyclopentoxy]-5-chloro-3-methyl-phenyl]thieno[3,2-b]pyridin-2-yl]methyl]-1-(2,2,2-trifluoroethyl)pyrimidine-2,4-dione; 2,2,2-trifluoroacetic acid]
IC50 [3]: < 1000 nM

Cc1cc(Cl)cc(-c2ccnc3cc(Cn4c(=O)ccn(C)c4=O)sc23)c1OC1CNCCC1(C)C (centres unmarked) [Example 592, 3-[[7-[5-chloro-2-[(4,4-dimethyl-3-piperidyl)oxy]-3-methyl-phenyl]thieno[3,2-b]pyridin-2-yl]methyl]-1-methyl-pyrimidine-2,4-dione]
IC50 [3]: < 1000 nM

Cc1cc(Cl)cc(-c2ccnc3cc(CO)sc23)c1O[C@@H]1CNC[C@H]1C [Example 55, (7-(5-Chloro-3-methyl-2-(((3S,4R)-4-methylpyrrolidin-3-yl)oxy)phenyl)thieno[3,2-b]pyridin-2-yl)methanol]
IC50 [2]: 10000 to 30000 nM

Cc1cc(Cl)cc(-c2ccnc3cc(Cn4c(=O)ccn(CC(F)(F)F)c4=O)sc23)c1OC1CC(N2CCC(F)C2)C1 (centres unmarked) [Example 685, 3-[[7-[5-chloro-2-[3-(3-fluoropyrrolidin-1-yl)cyclobutoxy]-3-methyl-phenyl]thieno[3,2-b]pyridin-2-yl]methyl]-1-(2,2,2-trifluoroethyl)pyrimidine-2,4-dione; 2,2,2-trifluoroacetic acid]
IC50 [1]: < 1000 nM

Cc1cc(C(F)(F)F)cc(-c2ccnc3cc(Cn4c(=O)c(F)cn(C)c4=O)sc23)c1O[C@H]1CCCNC1 [Example 460, 5-fluoro-1-methyl-3-[[7-[3-methyl-2-[[(3S)-3-piperidyl]oxy]-5-(trifluoromethyl)phenyl]thieno[3,2-b]pyridin-2-yl]methyl]pyrimidine-2,4-dione]
IC50 [3]: < 1000 nM

Cc1cc(Cl)cc(-c2ccnc3cc(Cn4c(=O)ccn(C)c4=O)sc23)c1O[C@@H]1CC[C@@H](N)C1 [Example 426, 3-[[7-[2-[(1R,3R)-3-aminocyclopentoxy]-5-chloro-3-methyl-phenyl]thieno[3,2-b]pyridin-2-yl]methyl]-1-methyl-pyrimidine-2,4-dione; 2,2,2-trifluoroacetic acid]
IC50 [3]: < 1000 nM

CCN1CC2CC(Oc3c(C)cc(Cl)cc3-c3ccnc4cc(Cn5c(=O)ccn(C)c5=O)sc34)C1C2 (centres unmarked) [Example 466, 3-[[7-[5-chloro-2-[(3-ethyl-3-azabicyclo[2.2.1]heptan-5-yl)oxy]-3-methyl-phenyl]thieno[3,2-b]pyridin-2-yl]methyl]-1-methyl-pyrimidine-2,4-dione]
IC50 [3]: < 1000 nM

Cc1cc(Cl)cc(-c2ncnc3cc(CN4C(=O)C5C(C4=O)C5(C)C)sc23)c1O[C@H]1CCCN[C@H]1C (stereo partly drawn) [Example 359, 3-[[4-[5-chloro-3-methyl-2-[[(2S,3S)-2-methyl-3-piperidyl]oxy]phenyl]thieno[3,2-d]pyrimidin-6-yl]methyl]-6,6-dimethyl-3-azabicyclo[3.1.0]hexane-2,4-dione]
IC50 [2]: < 1000 nM

Cc1cc(Cl)cc(-c2ccnc3cc(CN4C(=O)CN(CC(F)(F)F)C4=O)sc23)c1OC1CCNCC1 [Example 649, 3-[[7-[5-chloro-3-methyl-2-(4-piperidyloxy)phenyl]thieno[3,2-b]pyridin-2-yl]methyl]-1-(2,2,2-trifluoroethyl)imidazolidine-2,4-dione; 2,2,2-trifluoroacetic acid]
IC50 [3]: < 1000 nM

Cc1cc(Cl)cc(-c2ccnc3cc(Cn4c(=O)c(F)cn(C(C)C)c4=O)sc23)c1O[C@@H]1CCNC[C@@H]1C [Example 550, 3-[[7-[5-chloro-3-methyl-2-[[(3S,4R)-3-methyl-4-piperidyl]oxy]phenyl]thieno[3,2-b]pyridin-2-yl]methyl]-5-fluoro-1-isopropyl-pyrimidine-2,4-dione]
IC50 [3]: < 1000 nM

Cc1cc(Cl)cc(-c2ccnc3cc([C@H](C)N4C(=O)CCC4=O)sc23)c1O[C@@H]1CCNC[C@H]1F [Example 289, 1-[(1S)-1-[7-[5-chloro-2-[[(3R,4R)-3-fluoro-4-piperidyl]oxy]-3-methyl-phenyl]thieno[3,2-b]pyridin-2-yl]ethyl]pyrrolidine-2,5-dione; 2,2,2-trifluoroacetic acid]
IC50 [2]: < 1000 nM

Cc1cc(Cl)cc(-c2ccnc3cc(CN4C(=O)c5ccncc5C4=O)sc23)c1O[C@H]1CCCNC1 [Example 335, 2-[[7-[5-chloro-3-methyl-2-[[(3S)-3-piperidyl]oxy]phenyl]thieno[3,2-b]pyridin-2-yl]methyl]pyrrolo[3,4-c]pyridine-1,3-dione; 2,2,2-trifluoroacetic acid]
IC50 [2]: < 1000 nM

Cc1cc(Cl)cc(-c2ccnc3cc(CN4C(=O)CCC4=O)sc23)c1O[C@H]1CC[C@H](N)C1 [Example 127, 1-((7-(2-(((1S,3S)-3-Aminocyclopentyl)oxy)-5-chloro-3-methylphenyl)thieno[3,2-b]pyridin-2-yl)methyl)pyrrolidine-2,5-dione]
IC50 [2]: < 1000 nM

Cc1cc(Cl)cc(-c2ccnc3cc(CO)sc23)c1O[C@@H]1CNC[C@@H]1N=[N+]=[N-] [Example 191, (7-(2-(((3R,4S)-4-Azidopyrrolidin-3-yl)oxy)-5-chloro-3-methylphenyl)thieno[3,2-b]pyridin-2-yl)methanol]
IC50 [2]: 1000 to 10000 nM

Cc1cc([N+](=O)[O-])cc(-c2ccnc3cc(Cn4c(=O)ccn(CC(F)(F)F)c4=O)sc23)c1Oc1cncc(N)c1 [Example 281, 3-[[7-[2-[(5-amino-3-pyridyl)oxy]-3-methyl-5-nitro-phenyl]thieno[3,2-b]pyridin-2-yl]methyl]-1-(2,2,2-trifluoroethyl)pyrimidine-2,4-dione]
IC50 [2]: < 1000 nM

Cc1cc([N+](=O)[O-])cc(-c2ccnc3cc(Cn4c(=O)ccn(CC(F)(F)F)c4=O)sc23)c1OCc1cn[nH]c1 [Example 283, 3-[[7-[3-methyl-5-nitro-2-(1H-pyrazol-4-ylmethoxy)phenyl]thieno[3,2-b]pyridin-2-yl]methyl]-1-(2,2,2-trifluoroethyl)pyrimidine-2,4-dione; 2,2,2-trifluoroacetic acid]
IC50 [2]: < 1000 nM

Cc1cc(Cl)cc(-c2ccnc3cc(Cn4c(=O)ccn(C)c4=O)sc23)c1O[C@H]1CNC[C@H](C)C1 [Example 537, 3-[[7-[5-chloro-3-methyl-2-[[(3R,5R)-5-methyl-3-piperidyl]oxy]phenyl]thieno[3,2-b]pyridin-2-yl]methyl]-1-methyl-pyrimidine-2,4-dione]
IC50 [3]: < 1000 nM

Cc1cc(Cl)cc(-c2ccnc3cc(CN4C(=O)C5CCCCC5C4=O)sc23)c1O[C@@H]1CNC[C@@H]1F (stereo partly drawn) [Example 142, 2-((7-(5-Chloro-2-(((3R,4S)-4-fluoropyrrolidin-3-yl)oxy)-3-methylphenyl)thieno[3,2-b]pyridin-2-yl)methyl)hexahydro-1H-isoindole-1,3(2H)-dione]
IC50 [2]: < 1000 nM

CCC(O)c1cc2nccc(-c3cc(Cl)cc(C)c3OC3CC4CC3CN4)c2s1 (centres unmarked) [Example 197, 1-(7-(2-((2-Azabicyclo[2.2.1]heptan-5-yl)oxy)-5-chloro-3-methylphenyl)thieno[3,2-b]pyridin-2-yl)propan-1-ol]
IC50 [2]: 1000 to 10000 nM
